Legend:
[1] = system: Human vascular endothelial cells and fibroblasts (co-culture); test: Experiment on vascularization inhibition (luminal formation), Experiments 1 and 4; format: cell-based; details: suramin 25 μM final, VEGF-A 5 ng/ml, 11-day culturing; for AREA (area of vascular tube region): smaller = larger inhibition
Protocol: (§1) 1,000 μg of each specimen was weighed and dissolved in 1 ml of a culture medium. The resulting culture medium was sterilized by filtration (0.22 μm), diluted 10 fold (three times), to prepare samples at concentrations of 10 μg/ml to 1,000 μg/ml as shown in Table 1 (the contents of the test samples for use in assessing the effect on inhibiting vascularization).
(§2) Human vascular endothelial cells and fibroblasts were co-cultured at their optimal concentrations. At the proliferation state at an early stage of luminal formation, the individual samples (1-1-1, the negative controls, the positive controls) were added for 11-day culturing (the culture media containing the samples were exchanged 4, 7 and 9 days later). […] So as to evaluate the effect on inhibiting vascularization, the formed lumen-like network structure was observed.
Photographs of the vascular tube tissues were incorporated as digital data, to measure the area of a vascular tube region (black region) at several points randomly selected to determine the effect on inhibiting vascularization.
VEGF-A as a vascularization-promoting factor was added at an amount of 5 ng/ml (as the final concentration) Suramin as a positive control with an observed effect on inhibiting vascularization was added at an amount of 25 μM (as the final concentration)
as §1, with “Table 4” for “Table 1”, “of” for “of the”, “for” for “for use in”, “assessing vascularization inhibitory effect).” for “assessing the effect on inhibiting vascularization).”
as §2, with “Regarding” for “So as to evaluate”, “evaluated.” for “observed.”
Photographs of blood tube tissues were incorporated as digital data, to measure the area of the blood tube region (black part) at several positions randomly selected, to determine the inhibitory effect of vascularization.

[2] = system: Human vascular endothelial cells and fibroblasts (co-culture); test: Experiment on vascularization inhibition (lumen formation, KURABO kit), Experiments 2 and 5; format: cell-based; details: Suramin 50 μM final, VEGF-A 5 ng/ml, 11-day culturing
Protocol: 1,000 μg of each specimen was weighed and dissolved in 1 ml of a culture medium. The resulting culture medium was sterilized by filtration (0.22 μm), diluted 10 fold (three times), to prepare samples at concentrations of 10 μg/ml to 1,000 μg/ml.
Human vascular endothelial cells and fibroblasts were co-cultured at their optimal concentrations. At the proliferation state at an early stage of luminal formation, the individual samples were added for 11-day culturing (the culture media containing the samples were exchanged 4, 7 and 9 days later). […] As standards for the evaluation, VEGF-A promoting luminal formation was added at […], while suramin inhibiting luminal formation was added at 50 μM, in the same manner. A control was prepared without any addition. Regarding the effect on inhibiting vascularization, the formed lumen-like network structure was evaluated.
Method: A kit manufactured by KURABO was used for measurement. […] VEGF as a vascularization promoting factor and suramin as an agent for suppressing vascularization were concurrently present in a control, so as to compare the lumen formation state in the co-existence of VEGF and each sample.
Concentration of a sample added: 10, 100 and 1,000 μg/ml (Suramin was added in all of the cases at the same concentration; 50 μM)
VEGF-A as a vascularization-promoting factor was added at an amount of 5 ng/ml (as the final concentration) Suramin as a positive control with an observed effect on inhibiting vascularization was added at an amount of 50 μM (as the final concentration)
1,000 μg of each specimen was weighed and dissolved in 1 ml of a culture medium. The resulting culture medium was sterilized by filtration (0.22 μm) and diluted 10 fold (three times), to prepare samples at concentrations of 10 μg/ml to 1,000 μg/ml.
Concentration of a sample added: 10, 100 and 1000 μg/ml (Suramin was added in all of the cases at the same concentration; 50 μM)

**Q.** Which JOINT ([1]; listed as A3) does the source give for `Cc1ccc(C(=O)Nc2ccc(S(=O)(=O)O)c3cc(S(=O)(=O)O)cc(S(=O)(=O)O)c23)cc1NC(=O)c1cccc(NC(=O)Nc2cccc(C(=O)Nc3cc(C(=O)Nc4ccc(S(=O)(=O)O)c5cc(S(=O)(=O)O)cc(S(=O)(=O)O)c45)ccc3C)c2)c1` [Suramin, suramin] here?
**A.** 11

**Q.** What about the LENGTH ([1]; listed as A3) of the same molecule?
**A.** 4583

**Q.** And the PATH ([1]; listed as A3)?
**A.** 107

**Q.** What about the JOINT ([1]; listed as A4) of the same molecule?
**A.** 16

**Q.** And the LENGTH ([1]; listed as A4)?
**A.** 5311

**Q.** And the PATH ([1]; listed as A4)?
**A.** 128

**Q.** What about the “AREA (area of vascular tube region)” value ([1]; listed as A3) of the same molecule?
**A.** 27940

**Q.** And the “AREA (area of vascular tube region)” value ([1]; listed as A4)?
**A.** 33301

**Q.** What about the AREA [2] of the same molecule?
**A.** 30401

**Q.** What about the JOINT [2] of the same molecule?
**A.** 413

**Q.** What about the LENGTH [2] of the same molecule?
**A.** 6396

Source: US20090263356A1, “ANTI-ANGIOGENIC COMPOSITION COMPRISING GRAIN-DERIVED COMPONENT AS ACTIVE INGREDIENT” (SANWA SHURUI CO., LTD., priority 2005, published 2009)
